# Assays:
# Cells expressing Ras = experiment: sensitivity of Ras-expressing cells to drugs with reported splicing inhibition; type: cell-based; conditions: FIG. 11
# [1] = system: GSC primary cell cultures and normal NSC control cells; experiment: alamarBlue cell viability after shRNA knockdown; type: cell-based, human; conditions: shRNA virus, puromycin selection, one week, FIG. 1A
# Source text: (§1) To verify the robustness and reproducibility of PHF5α loss in GSC growth inhibition, the normal NSC control cells and a panel of five GSC primary cell cultures were infected with viruses encoding three different shRNA sequences targeting PHF5α (shPHF5α-133 (SEQ ID NO.:11), shPHF5α-402 (SEQ ID NO.:10), and shPHF5α-861 (SEQ ID NO.:9)), as well as a positive control (shKIF11-555 (SEQ ID NO.:19); blocking kinesin family member 11 (KIF11) prevents centrosome migration, which arrests cells in mitosis) and negative control (shCtrl). Cultures were selected with puromycin, plated at about 1000 cells per well in 96-well plates, and incubated for one week at 37° C./5% CO2 before assaying cell viability using the alamarBlue® assay (Invitrogen, Gand Island, N.Y.). Briefly, resazurin (a blue compound that is non-toxic, cell permeable compound and essentially non-fluorescent) is added to the cell cultures, which is reduced to resorufin upon entering metabolically active cells (in contrast, non-viable or damaged cells cannot do this effectively). Resorufin is a bright red fluorescent molecule that functions as a colorimetric indicator. In addition, all three shRNA viruses were internally validated to knock down PHF5α at both the RNA and protein levels (data not shown).
# PHF5α = experiment: immunostained western blot of PHF5α protein after shRNA; type: cell-based, human; conditions: GSCs (G166, 0827, 0131) and NSCs, relative to shCtrl; FIG. 1B
# Chain of PHF5α (Q7RTV0 whole entry): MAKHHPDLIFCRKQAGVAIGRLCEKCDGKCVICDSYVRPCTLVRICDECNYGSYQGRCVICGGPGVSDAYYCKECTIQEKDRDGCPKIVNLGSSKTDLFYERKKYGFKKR
# Source text: (B) is an immunostained western blot showing PHF5α protein levels are reduced in GSCs (G166, 0827, 0131) and NSCs when exposed to a short hairpin RNA (shRNA) that reduces PHF5α RNA levels (shPHF5α-133 (SEQ ID NO.:11), shPHF5α-402 (SEQ ID NO.:10), shPHF5α-861 (SEQ ID NO.:9)) relative to the levels of PHF5α in cells treated with a non-silencing control shRNA (shCtrl).
# as §1
# GSCs = experiment: cell cycle arrest phenotype (rounded cells) in GFP-expressing GSCs after shRNA; type: cell-based, human; conditions: FIG. 2
# Source text: Arrows point to rounded cells, which are those showing a cell arrest phenotype.
# In addition, the GSC and NSC containing two of the shRNA sequences targeting PHF5α, KIF11 (positive control), and a random clone (negative control) were examined by immunofluorescence analysis using DAPI staining and a fluorescent microscope. Cells that appeared balled up are ones that suffered cell cycle arrest, while elongated cells were unaffected in their proliferation. […] In contrast, inhibition of PHF5α produced a striking phenotype of a G2/M mitotic arrest in GSCs, but not in NSCs (data not shown).
# Ryzinski et al. (Cytogenet. […] Res. 121:232, 2008) identified PHF5α as a bridge protein capable of connecting members of the U2 snRNP, especially U2AF1 to RNA helicases, especially DDX1. To test whether, out of the possible known or unknown roles in a cell, the splicing functions of PHF5α is an important activity contributing to GSC survival and proliferation, shRNA knockdown similar to Example 2 was performed against each member of this bridging interaction—U2AF1 and DDX1.
# [2] = system: GSCs relative to NSCs (G166 or CB660 cells); experiment: cell viability of GSC or NSC cells after SSA / SudC1 (AlamarBlue); type: cell-based, human; conditions: dilution series; FIGS. 3B and 3C
# Source text: (§2) Along with high MPM-2 staining, and little or no phosphorylated BubR1, this is consistent with a pre-anaphase arrest in which the mitotic checkpoint has not been triggered.
# U2 snRNP subunit SF3b = U2 snRNP subunit SF3b (Homo sapiens, UniProt O75533+Q7RTV0); conditions: Kaida et al. 2007; Corrionero et al. 2011; cited from earlier work
# GSCs and NSCs = experiment: cell cycle arrest after SSA or SudC1; type: cell-based, human; conditions: at doses within the efficacy window; data not shown
# Source text: as §2
# H2B-GFP expressing GSCs = experiment: metaphase capture assay with MG132; type: cell-based, human; conditions: overnight exposure to drug, then MG132 for 2 hours
# Description: The GSC-specific G2/M arrest was characterized by performing metaphase capture assays in H2B-GFP expressing GSCs treated with proteasome inhibitor MG132, which arrests mitotic cells at metaphase, blocking APCCdc20-dependent degradation of Cyclin B (Lampson and Kapoor 2005). After overnight exposure to SudC1 or SSA, cells were treated with MG132 for 2 hours. […] It was also observed that the viability loss in drug-treated GSC cultures results from the death of previously arrested mitotic cells and not interphase GSCs, identifying the cancer-specific mitotic arrest as a causative event in cancer cell death due to splicing inhibition.
# GSC-H2B-GFP cells = experiment: live cell imaging of drug-treated cells; type: cell-based, human; conditions: for timing of mitoses: GSCs, first hours after drug treatment; for mitotic arrest in live cell imaging: data not shown
# [3] = system: RNA splicing in GSCs and NSCs; experiment: splicing defects on gels after SudC1; type: cell-based, human; conditions: GSCs versus NSCs; FIG. 16
# Source text: This example also describes the effects of two candidate small molecule inhibitors of the U2 snRNP complex, Spliceostatin A (SSA) and Sudemycin C1 (SudC1). […] (Kaida et al. 2007; Corrionero et al. 2011). […] It was reasoned that if the most relevant GSC-specific function of PHF5A is its function in the splicing activity of the U2 snRNP, then these drugs should show a similar pattern of effects on RNA splicing in GSCs and NSCs. This was indeed the case. […] In addition, after PHF5A knockdown, multiple constitutive exons of the well characterized RTK/Ras signaling effector RAF1 and the cancer-associated deacetylase HDAC6 were skipped GSCs but not in normal NSCs.
# [4] = system: normal IMR90 fibroblast cells; experiment: drug response assay, alamarBlue viability; type: cell-based, human; conditions: 0.08-10.0 μM for 24 hours, viability at 72 hours; FIG. 9A
# Source text: (§3) Approximately 88% of clinical glioblastoma tumors harbor mutations that activate signaling through the Ras/PI3-kinase pathways (The Cancer Genome Atlas Research Network, Nature 455:1061, 2008). Since PHF5α inhibition is detrimental to a range of glioblastoma cell cultures, but not to the normal NSC from which most glioblastomas are thought to arise, transformation from a normal cell to a cancer cell was examined to determine whether PHF5α dependence was acquired during this process. Accordingly, Ras signaling was activated in normal IMR90 fibroblast cells by infecting with a retrovirus encoding the ElA and Ras oncogenes (EIA was included because Ras alone would be lethal in these cells). These partially transformed fibroblasts were probed for their response to shPHF5α inhibition and to a U2 snRNP splicing inhibitor (sudemycin C1). Viral shRNA knockdown was performed as described in the above examples. For drug response assays, cells were plated in 96-well plates and contacted with a range of sudemycin C1 concentrations (0.08, 0.16, 0.31, 0.63, 1.25, 2.50, 5.0 or 10.0 μM) for a period of 24 hours. Media was then removed and replaced with fresh media, then cell viability was measured 72 hours after drug exposure using the alamarBlue® assay (Invitrogen).
# IMR90+E1A/Ras = experiment: drug response assay, alamarBlue viability; type: cell-based, human; conditions: 0.08-10.0 μM for 24 hours, viability at 72 hours; FIG. 9A
# Source text: as §3
# [5] = system: MEF cells with the addition of oncogenic Ras signaling; experiment: viability after sudemycin treatment; type: cell-based, mouse
# Source text: as §3, with “(Invitrogen). […]” for “(Invitrogen).”
# [6] = system: Non-transformed MEF cells; experiment: viability after sudemycin treatment; type: cell-based, mouse
# RNA splicing = conditions: Lagisetti et al. 2008, 2009; Fan et al. 2011; cited from earlier work
compound,measurement,setting,value
CCN1/C(=C/C(C)=O)Sc2ccc(OC)cc21 [TG003],differential sensitivity of cells expressing Ras,Cells expressing Ras,not differentially sensitive
Fc1ccc(C(c2ccc(F)cc2)N2CCN(C/C=C/c3ccccc3)CC2)cc1 [flunarizine],differential sensitivity of cells expressing Ras,Cells expressing Ras,not differentially sensitive
Clc1ccccc1C(c1ccccc1)(c1ccccc1)n1ccnc1 [Clotrimazole],differential sensitivity of cells expressing Ras,Cells expressing Ras,not differentially sensitive
"shPHF5α-133: shRNA targeting PHF5α, ACTCAACCAAGATCTTCTAAAA, SEQ ID NO. 11 (listed as DNA, chemistry not fully specified)",proliferation of GSCs compared to NSCs,[1],greater reduction in proliferation of GSCs compared to normal neural stem cells
same,PHF5α protein levels,PHF5α,reduced
"shPHF5α-402: shRNA targeting PHF5α, AGCATTTACTTGTTTAACACTT, SEQ ID NO. 10 (listed as DNA, chemistry not fully specified)",proliferation of GSCs compared to NSCs,[1],greater reduction in proliferation of GSCs compared to normal neural stem cells
same,PHF5α protein levels,PHF5α,reduced
[H]/N=C(\N/C(=N/[H])NCCCCCCNC(=N)NC(=N)Nc1ccc(Cl)cc1)Nc1ccc(Cl)cc1 [chlorhexidine],differential sensitivity of cells expressing Ras,Cells expressing Ras,not differentially sensitive
"DDX1-301: shRNA targeting DDX1, ACACGGTGTTCCTTATGTTATA, SEQ ID NO. 18 (listed as DNA, chemistry not fully specified)",cell cycle arrest,GSCs,undergone cell cycle arrest
"CO[C@]1(C)C[C@@]2(CO2)[C@H](O)[C@@H](/C=C/C(C)=C/C[C@@H]2O[C@H](C)[C@H](NC(=O)/C=C\[C@H](C)OC(C)=O)C[C@@H]2C)O1 [SSA, Spliceostatin A]",viability loss in GSCs relative to NSCs,[2],greater dose-dependent viability loss in GSCs relative to NSCs
same,binding and inhibition of SF3b,U2 snRNP subunit SF3b,binds to and inhibits
same,cell cycle arrest,GSCs and NSCs,characteristic cell cycle arrest in GSCs but not NSCs
same,metaphase arrest with MG132,H2B-GFP expressing GSCs,unable to properly arrest
same,differential sensitivity of cells expressing Ras,Cells expressing Ras,differentially sensitive
same,timing of mitoses,GSC-H2B-GFP cells,did not affect the timing of mitoses for several hours after drug treatment
same,mitotic arrest in live cell imaging,GSC-H2B-GFP cells,mitotic arrest pre-metaphase
"shU2AF1-100: shRNA targeting U2AF1, CGGCTGTGATTGACTTGAATAA, SEQ ID NO. 1 (listed as DNA, chemistry not fully specified)",cell cycle arrest,GSCs,undergone cell cycle arrest
Sudemycin C1 [SudC1],viability loss in GSCs relative to NSCs,[2],greater dose-dependent viability loss in GSCs relative to NSCs
same,splicing defects,[3],dose-dependent GSC-specific splicing defects
same,sensitivity of cell viability,[4],relatively resistant
same,sensitivity of cell viability,IMR90+E1A/Ras,greatly sensitized
same,sensitivity of cell viability,[5],greatly sensitized
same,sensitivity of cell viability,[6],relatively resistant
same,cell cycle arrest,GSCs and NSCs,characteristic cell cycle arrest in GSCs but not NSCs
same,metaphase arrest with MG132,H2B-GFP expressing GSCs,unable to properly arrest
same,differential sensitivity of cells expressing Ras,Cells expressing Ras,differentially sensitive
same,timing of mitoses,GSC-H2B-GFP cells,did not affect the timing of mitoses for several hours after drug treatment
same,mitotic arrest in live cell imaging,GSC-H2B-GFP cells,mitotic arrest pre-metaphase
same,modulation of RNA splicing,RNA splicing,modulates RNA splicing
Pladienolide B,differential sensitivity of cells expressing Ras,Cells expressing Ras,differentially sensitive
"shPHF5α-861: shRNA targeting PHF5α, CGCCCACTAGTCTCATATTATT, SEQ ID NO. 9 (listed as DNA, chemistry not fully specified)",cell cycle arrest,GSCs,undergone cell cycle arrest
same,proliferation of GSCs compared to NSCs,[1],greater reduction in proliferation of GSCs compared to normal neural stem cells
same,PHF5α protein levels,PHF5α,reduced
